According to BindingDB's records for doi:10.1016/s0960-894x(02)00300-1 (University of Illinois At Chicago, 2002):

Biological target: T1, Dimer of Gag-Pol polyprotein [501-599,Q508K,L534I,L564I,C568A,C596A] (Human immunodeficiency virus 1, UniProt P03367, C568A/C596A/L534I/L564I/Q508K)
T1 construct: 501-599
Experiment: Protease Inhibition Assay
Settings: pH 6.4; 25 °C
Experimental: The Ki values were determined using fluorogenic substrate, 2-(aminobenzoyl)-Thr-Ile-Nle-Phe(p-NO2)-Gln-ArgNH2. A standard curve relating changes in fluorescent intensity to changes in concentration of product was used to convert fluorescent changes into molar velocities. The amount of cleavage was determined by HPLC.

Structure (SMILES) | Ki [nM]
O=C(N[C@@H](Cc1ccccc1)[C@H](O)CN1CCCCCCCCCCCCOC1=O)O[C@H]1CO[C@H]2OCC[C@H]21 [(3R,3aS,6aR)-hexahydrofuro[2,3-b]furan-3-yl N-[(2S,3R)-3-hydroxy-4-(2-oxo-1-oxa-3-azacyclopentadecan-3-yl)-1-phenylbutan-2-yl]carbamate] | 14
O=C(N[C@@H](Cc1ccccc1)[C@H](O)CN1C/C=C\CCCCCCCCOC1=O)O[C@H]1CO[C@H]2OCC[C@H]21 [(3R,3aS,6aR)-hexahydrofuro[2,3-b]furan-3-yl N-[(2S,3R)-3-hydroxy-4-[(5Z)-2-oxo-1-oxa-3-azacyclotetradec-5-en-3-yl]-1-phenylbutan-2-yl]carbamate] | 125
C=CCCCCCCCCOC(=O)N(CC=C)C[C@@H](O)[C@H](Cc1ccccc1)NC(=O)O[C@H]1CO[C@H]2OCC[C@H]21 [dec-9-en-1-yl N-[(2R,3S)-3-({[(3R,3aS,6aR)-hexahydrofuro[2,3-b]furan-3-yloxy]carbonyl}amino)-2-hydroxy-4-phenylbutyl]-N-(prop-2-en-1-yl)carbamate] | > 1000
C=CCCCCCCCOC(=O)N(CC(C)CC=C)C[C@@H](O)[C@H](Cc1ccccc1)NC(=O)O[C@H]1CO[C@H]2OCC[C@H]21 (stereo partly drawn) [non-8-en-1-yl N-[(2R,3S)-3-({[(3R,3aS,6aR)-hexahydrofuro[2,3-b]furan-3-yloxy]carbonyl}amino)-2-hydroxy-4-phenylbutyl]-N-(2-methylpent-4-en-1-yl)carbamate] | > 1000
O=C(N[C@@H](Cc1ccccc1)[C@H](O)CN1C/C=C\CCCCCCCC(c2ccccc2)OC1=O)O[C@H]1CO[C@H]2OCC[C@H]21 (stereo partly drawn) [(3R,3aS,6aR)-hexahydrofuro[2,3-b]furan-3-yl N-[(2S,3R)-3-hydroxy-4-[(5Z)-2-oxo-14-phenyl-1-oxa-3-azacyclotetradec-5-en-3-yl]-1-phenylbutan-2-yl]carbamate] | 229
CC(C)(C)NC(=O)[C@@H]1C[C@@H]2CCCC[C@@H]2CN1C[C@@H](O)[C@H](Cc1ccccc1)NC(=O)O[C@H]1CO[C@H]2OCC[C@H]21 [(3R,3aS,6aR)-hexahydrofuro[2,3-b]furan-3-yl N-[(2S,3R)-4-[(3S,4aS,8aS)-3-(tert-butylcarbamoyl)-decahydroisoquinolin-2-yl]-3-hydroxy-1-phenylbutan-2-yl]carbamate] | 2
C=CCCCCCCC(OC(=O)N(CCCCC=C)C[C@@H](O)[C@H](Cc1ccccc1)NC(=O)O[C@H]1CO[C@H]2OCC[C@H]21)c1ccccc1 (stereo partly drawn) [(3R,3aS,6aR)-hexahydrofuro[2,3-b]furan-3-yl N-[(2S,3R)-4-[hex-5-en-1-yl({[(1-phenylnon-8-en-1-yl)oxy]carbonyl})amino]-3-hydroxy-1-phenylbutan-2-yl]carbamate] | 444
C=CCCCCCCCCOC(=O)N(C[C@@H](O)[C@H](Cc1ccccc1)NC(=O)O[C@H]1CO[C@H]2OCC[C@H]21)C(C)CC=C (stereo partly drawn) [dec-9-en-1-yl N-[(2R,3S)-3-({[(3R,3aS,6aR)-hexahydrofuro[2,3-b]furan-3-yloxy]carbonyl}amino)-2-hydroxy-4-phenylbutyl]-N-(pent-4-en-2-yl)carbamate] | > 1000
CC1CC=CCCCCCCCCOC(=O)N1C[C@@H](O)[C@H](Cc1ccccc1)NC(=O)O[C@H]1CO[C@H]2OCC[C@H]21 (stereo partly drawn) [(3R,3aS,6aR)-hexahydrofuro[2,3-b]furan-3-yl N-[(2S,3R)-3-hydroxy-4-(4-methyl-2-oxo-1-oxa-3-azacyclopentadec-6-en-3-yl)-1-phenylbutan-2-yl]carbamate] | 53
CC1CCCCCCCCCCCOC(=O)N1C[C@@H](O)[C@H](Cc1ccccc1)NC(=O)O[C@H]1CO[C@H]2OCC[C@H]21 (stereo partly drawn) [(3R,3aS,6aR)-hexahydrofuro[2,3-b]furan-3-yl N-[(2S,3R)-3-hydroxy-4-(4-methyl-2-oxo-1-oxa-3-azacyclopentadecan-3-yl)-1-phenylbutan-2-yl]carbamate] | 30
O=C(N[C@@H](Cc1ccccc1)[C@H](O)CN1CCCCCCCCC=CCC(c2ccccc2)OC1=O)O[C@H]1CO[C@H]2OCC[C@H]21 (stereo partly drawn) [(3R,3aS,6aR)-hexahydrofuro[2,3-b]furan-3-yl N-[(2S,3R)-3-hydroxy-4-(2-oxo-15-phenyl-1-oxa-3-azacyclopentadec-12-en-3-yl)-1-phenylbutan-2-yl]carbamate] | 167
O=C(N[C@@H](Cc1ccccc1)[C@H](O)CN1CCCCCCCCCCCOC1=O)O[C@H]1CO[C@H]2OCC[C@H]21 [(3R,3aS,6aR)-hexahydrofuro[2,3-b]furan-3-yl N-[(2S,3R)-3-hydroxy-4-(2-oxo-1-oxa-3-azacyclotetradecan-3-yl)-1-phenylbutan-2-yl]carbamate] | 80
O=C(N[C@@H](Cc1ccccc1)[C@H](O)CN1CCCCCCCCCCCC(c2ccccc2)OC1=O)O[C@H]1CO[C@H]2OCC[C@H]21 (stereo partly drawn) [(3R,3aS,6aR)-hexahydrofuro[2,3-b]furan-3-yl N-[(2S,3R)-3-hydroxy-4-(2-oxo-15-phenyl-1-oxa-3-azacyclopentadecan-3-yl)-1-phenylbutan-2-yl]carbamate] | 357
O=C(N[C@@H](Cc1ccccc1)[C@H](O)CN1CCCCCCCCCCCCC(c2ccccc2)OC1=O)O[C@H]1CO[C@H]2OCC[C@H]21 (stereo partly drawn) [(3R,3aS,6aR)-hexahydrofuro[2,3-b]furan-3-yl N-[(2S,3R)-3-hydroxy-4-(2-oxo-16-phenyl-1-oxa-3-azacyclohexadecan-3-yl)-1-phenylbutan-2-yl]carbamate] | 268
C=CCCCCCCCCN(C[C@@H](O)[C@H](Cc1ccccc1)NC(=O)O[C@H]1CO[C@H]2OCC[C@H]21)C(=O)OC(CC=C)c1ccccc1 (stereo partly drawn) [(3R,3aS,6aR)-hexahydrofuro[2,3-b]furan-3-yl N-[(2S,3R)-4-[dec-9-en-1-yl({[(1-phenylbut-3-en-1-yl)oxy]carbonyl})amino]-3-hydroxy-1-phenylbutan-2-yl]carbamate] | > 1000
CC1CCCCCCCCCCOC(=O)N(C[C@@H](O)[C@H](Cc2ccccc2)NC(=O)O[C@H]2CO[C@H]3OCC[C@H]32)C1 (stereo partly drawn) [(3R,3aS,6aR)-hexahydrofuro[2,3-b]furan-3-yl N-[(2S,3R)-3-hydroxy-4-(5-methyl-2-oxo-1-oxa-3-azacyclopentadecan-3-yl)-1-phenylbutan-2-yl]carbamate] | 6.1
CC1CC=CCCCCCCCOC(=O)N(C[C@@H](O)[C@H](Cc2ccccc2)NC(=O)O[C@H]2CO[C@H]3OCC[C@H]32)C1 (stereo partly drawn) [(3R,3aS,6aR)-hexahydrofuro[2,3-b]furan-3-yl N-[(2S,3R)-3-hydroxy-4-(5-methyl-2-oxo-1-oxa-3-azacyclopentadec-7-en-3-yl)-1-phenylbutan-2-yl]carbamate] | 11
O=C(N[C@@H](Cc1ccccc1)[C@H](O)CN1CCCCCCCCCCC(c2ccccc2)OC1=O)O[C@H]1CO[C@H]2OCC[C@H]21 (stereo partly drawn) [(3R,3aS,6aR)-hexahydrofuro[2,3-b]furan-3-yl N-[(2S,3R)-3-hydroxy-4-(2-oxo-14-phenyl-1-oxa-3-azacyclotetradecan-3-yl)-1-phenylbutan-2-yl]carbamate] | 189
O=C(N[C@@H](Cc1ccccc1)[C@H](O)CN1CCCCC=CCCCCCCC(c2ccccc2)OC1=O)O[C@H]1CO[C@H]2OCC[C@H]21 (stereo partly drawn) [(3R,3aS,6aR)-hexahydrofuro[2,3-b]furan-3-yl N-[(2S,3R)-3-hydroxy-4-(2-oxo-16-phenyl-1-oxa-3-azacyclohexadec-8-en-3-yl)-1-phenylbutan-2-yl]carbamate] | 162
C=CCCCCCCCCN(C[C@@H](O)[C@H](Cc1ccccc1)NC(=O)O[C@H]1CO[C@H]2OCC[C@H]21)C(=O)OCCC=C [but-3-en-1-yl N-[(2R,3S)-3-({[(3R,3aS,6aR)-hexahydrofuro[2,3-b]furan-3-yloxy]carbonyl}amino)-2-hydroxy-4-phenylbutyl]-N-(dec-9-en-1-yl)carbamate] | > 1000
C=CCCCCCCCC(OC(=O)N(CC=C)C[C@@H](O)[C@H](Cc1ccccc1)NC(=O)O[C@H]1CO[C@H]2OCC[C@H]21)c1ccccc1 (stereo partly drawn) [(3R,3aS,6aR)-hexahydrofuro[2,3-b]furan-3-yl N-[(2S,3R)-3-hydroxy-1-phenyl-4-({[(1-phenyldec-9-en-1-yl)oxy]carbonyl}(prop-2-en-1-yl)amino)butan-2-yl]carbamate] | > 1000
O=C(N[C@@H](Cc1ccccc1)[C@H](O)CN1CCCCCCCCC=CCCOC1=O)O[C@H]1CO[C@H]2OCC[C@H]21 [(3R,3aS,6aR)-hexahydrofuro[2,3-b]furan-3-yl N-[(2S,3R)-3-hydroxy-4-(2-oxo-1-oxa-3-azacyclopentadec-12-en-3-yl)-1-phenylbutan-2-yl]carbamate] | 88
